Experimental data from patent publication US5837862A, “Sialyl Lewis X mimetics incorporating mannopeptides” (The Scripps Research Institute, priority 1996, dated 1998).

What was measured:
E-selectin = target: T1, E-selectin (Homo sapiens, UniProt P16581); assay: E-selectin inhibition assay (Weitz-Schmidt et al.); type: binding
T1 sequence (P16581 22-610): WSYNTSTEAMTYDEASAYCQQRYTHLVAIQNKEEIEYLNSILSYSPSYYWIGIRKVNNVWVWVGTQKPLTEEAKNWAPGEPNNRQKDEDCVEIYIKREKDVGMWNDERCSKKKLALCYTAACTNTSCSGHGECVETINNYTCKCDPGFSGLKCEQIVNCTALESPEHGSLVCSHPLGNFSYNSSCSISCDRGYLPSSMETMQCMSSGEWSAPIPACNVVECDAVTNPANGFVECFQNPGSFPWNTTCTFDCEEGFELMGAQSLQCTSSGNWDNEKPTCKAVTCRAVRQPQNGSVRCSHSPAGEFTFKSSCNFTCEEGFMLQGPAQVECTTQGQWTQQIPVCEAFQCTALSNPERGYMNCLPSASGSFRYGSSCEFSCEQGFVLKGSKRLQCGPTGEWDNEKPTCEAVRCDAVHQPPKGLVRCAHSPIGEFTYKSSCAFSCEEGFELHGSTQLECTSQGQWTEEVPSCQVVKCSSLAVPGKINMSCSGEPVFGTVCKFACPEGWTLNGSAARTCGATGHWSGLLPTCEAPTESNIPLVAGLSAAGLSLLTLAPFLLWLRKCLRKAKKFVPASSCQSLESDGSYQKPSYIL

P-selectin = target: T2, P-selectin (Homo sapiens, UniProt P16109); assay: P-selectin inhibition assay; type: binding; details: at 3 mM
T2 sequence (P16109 42-830): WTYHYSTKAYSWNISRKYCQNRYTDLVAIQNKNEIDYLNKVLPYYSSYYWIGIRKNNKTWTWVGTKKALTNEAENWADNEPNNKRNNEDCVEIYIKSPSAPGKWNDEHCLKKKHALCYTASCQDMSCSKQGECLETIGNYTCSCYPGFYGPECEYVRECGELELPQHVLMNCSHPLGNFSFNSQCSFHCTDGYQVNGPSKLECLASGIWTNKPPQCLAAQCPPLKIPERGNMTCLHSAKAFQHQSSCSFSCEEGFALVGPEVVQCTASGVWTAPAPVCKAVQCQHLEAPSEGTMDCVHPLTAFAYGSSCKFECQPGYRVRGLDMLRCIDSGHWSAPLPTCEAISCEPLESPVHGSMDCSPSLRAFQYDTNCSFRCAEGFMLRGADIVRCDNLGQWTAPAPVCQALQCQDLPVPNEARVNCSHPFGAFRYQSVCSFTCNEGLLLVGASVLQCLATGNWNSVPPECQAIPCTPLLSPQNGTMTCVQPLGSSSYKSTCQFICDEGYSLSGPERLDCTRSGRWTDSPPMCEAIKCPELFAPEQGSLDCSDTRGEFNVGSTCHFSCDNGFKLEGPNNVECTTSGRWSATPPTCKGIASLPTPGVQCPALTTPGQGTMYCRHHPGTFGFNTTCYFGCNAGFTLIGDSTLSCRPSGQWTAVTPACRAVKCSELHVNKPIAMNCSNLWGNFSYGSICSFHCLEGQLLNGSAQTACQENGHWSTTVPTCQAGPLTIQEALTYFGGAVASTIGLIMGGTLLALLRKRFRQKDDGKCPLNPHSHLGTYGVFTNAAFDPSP

L-selectin = target: T3, L-selectin (Homo sapiens, UniProt P14151); assay: L-selectin inhibition assay; type: binding; details: at 3 mM
T3 sequence (P14151 39-372): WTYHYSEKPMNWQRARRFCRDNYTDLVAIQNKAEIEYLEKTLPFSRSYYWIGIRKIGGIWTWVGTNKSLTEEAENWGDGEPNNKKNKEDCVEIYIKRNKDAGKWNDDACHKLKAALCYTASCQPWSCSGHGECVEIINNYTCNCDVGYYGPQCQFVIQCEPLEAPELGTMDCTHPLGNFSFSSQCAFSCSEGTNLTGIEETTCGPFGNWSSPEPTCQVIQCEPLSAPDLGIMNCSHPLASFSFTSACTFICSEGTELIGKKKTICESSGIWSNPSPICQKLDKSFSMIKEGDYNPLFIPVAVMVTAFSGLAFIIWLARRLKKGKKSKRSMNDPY

lung injury in rats = details: cited from earlier work
glycosidase = details: because of glycosidase reductions; cited from earlier work
[1] = in vivo; cited from earlier work

Compound	IC50 (E-selectin)	activity relative to SLex (E-selectin; versus SLex)	inhibition of P-selectin (P-selectin)	inhibition of L-selectin (L-selectin)	effective intravenous concentration (lung injury in rats; rat, intravenous infusion of up to 200 μg, calculated)	effect on lung injury (lung injury in rats; rat, intravenous infusion of up to 200 μg, cobra venom)	IC50 (lung injury in rats; rats, read-out: IC50 value in vivo for protecting against lung injury)	stability in the blood stream (glycosidase)	oral activity [1]
O=C(O)CNC(=O)[C@@H](O)[C@H](O)C[C@H]1O[C@H](CO)[C@@H](O)[C@H](O)[C@@H]1O [Mimetic 5, (2S,3R)-N-Carboxylmethyl-2,3-dihydroxy-4-(α-D -mannopyranosyl)-butyramide]	160 µM	3 fold	does not inhibit	does not inhibit					
NeuAcα2→3Galβ1→4(Fucα1→3)GlcNAc [SLex]					less than 1 μM	dramatically reduced lung injury	~1 µM	unstable in the blood stream	orally inactive
